Experimental data: a melting point compilation (Tetko et al.; mined from patent text by program, amines drawn as free bases though some values may be those of a salt)

SMILES	melting point
O=C(CS(=O)CCNC(=O)c1ccco1)NCCCOc1cccc(CN2CCCCC2)c1 (stereo not drawn)	101 to 102 °C
CCc1nn(Cc2ccccn2)c(C(N)=O)c1NC(=O)c1cc(S(C)(=O)=O)ccc1OCC(C)C	225 to 227 °C
Cc1coc2c1C(C)(O)C1=C(CCCC1C)C2=O (stereo not drawn)	139 to 141 °C
CC(C)(C)OC(=O)CC[C@H](NC(=O)c1ccc(N(CCCl)CCCl)cc1F)C(=O)OC(C)(C)C	90 to 92 °C
CCCNC(=O)C1(CCC)c2ccccc2Sc2ccccc21	132 to 133 °C
C=CCNC(=O)[C@H]1NCSC1(C)C	45 to 47 °C
COc1cc2cc(C3CCCC3)sc2c(Cl)c1Cl	59.5 to 60 °C
CCNC(CC)CCOc1ccc(-c2ccc(C(=O)O)cc2)cc1-c1ccc2c(c1)C(C)(C)CCC2(C)C (stereo not drawn)	195 °C
CCOC(=O)CCCOc1ccc2c(c1)C[C@@H](NC(=O)OC(C)(C)C)CC2	96 to 98 °C
Fc1ncnc(Oc2ccccc2)c1F	65 to 66 °C
COc1ccc(/C=C/C(=O)C#CCO)cc1	68 to 69 °C
CCCCS(=O)(=O)c1c(-c2ccccc2)nn(C)c1-c1ccccc1	92.5 to 93 °C
CCCCNC(=O)NS(=O)(=O)C(C)=Cc1ccccc1	135 to 136 °C
O=c1oc(-c2ccccc2)cc(O)c1Sc1ccccc1Cl	275 to 280 °C
CC(C)OC(=O)Nc1ccc(C2=NNC(=O)CC2C)cc1 (stereo not drawn)	236 to 237 °C
O=C(O)COc1ccc(SCc2cccc(OCc3ccc(C(F)(F)F)cc3)c2)c2c1CCC2	145 to 146 °C
CCCCCCCCCCc1ccc(CNc2ccc(C(=O)OCC)cc2)cc1	87 to 90 °C
CNC(=NS(=O)(=O)c1ccc(C)cc1)NCCSCc1[nH]cnc1C	138 °C
O=c1oc(-c2cccc(Cl)c2)cc(O)c1SCc1ccccc1	136 to 137 °C
COc1ccc(-c2ccco2)c2c1c(CCN(C)C)cn2C	90 to 93 °C
CCOc1c(C(N)=O)cnc2c(NC(=O)c3c(Cl)cccc3Cl)cccc12	242 to 245 °C
O=S1(=O)c2cccc3cccc(c23)N1CCN1CC=C(Cc2c[nH]c3ccc(F)cc23)CC1	128 °C
Cc1cccc(C(C)(C)CC(O)(C(=O)Nc2ccc3c(c2)COC3=O)C(F)(F)F)c1 (stereo not drawn)	152 to 153 °C
Cc1cc(-c2cc(C(F)F)n3ncc(C(=O)Nc4cccc(S(C)(=O)=O)c4)c3n2)ccc1Cl	270 °C
CN(C)Nc1c([N+](=O)[O-])cc(C(F)(F)F)c(N)c1[N+](=O)[O-]	150 to 154 °C
NS(=O)(=O)c1cc2cc(CCBr)ccc2s1	118 to 120 °C

SMILES	melting point
Cc1cccc(C=CCC(C(=O)C=Cc2ccc(Cl)cc2)c2ccccc2)c1 (stereo not drawn)	89 to 93 °C
CN(CCO)S(=O)(=O)c1cc([N+](=O)[O-])c(Cl)s1	62 °C
CSc1c[nH]c2ccc(C)cc12	136 to 137 °C
OC(c1ccccc1)(c1ccc(Cl)cc1)c1ncc[nH]1 (stereo not drawn)	163 to 165 °C
COc1ccc(Cn2c(=O)c(C#N)c(Cl)c3cc(F)cnc32)cc1	195 °C
CC(O)CCNC(=O)C1CCC(Nc2nccc(-n3ncc4ccccc43)n2)CC1 (stereo not drawn)	203 to 204 °C
CCn1nc2c(N)nc3ccccc3c2c1CC1(F)CCN(C(=O)NC(C)C)CC1	205 to 207 °C
C=C1C(=O)c2ccccc2OC1c1cccc([N+](=O)[O-])c1 (stereo not drawn)	131 to 132 °C
NS(=O)(=O)C1(c2ncc(C(F)(F)F)cc2Cl)C=CC(Cl)=CC1Cl (stereo not drawn)	125 to 126 °C
O=C(O)c1cccc2c(=O)c3cc(I)ccc3[nH]c12	355 to 357 °C
O=C(NCc1c[nH]c(=S)n1[C@H]1CCc2c(F)cc(F)cc2C1)c1ccco1	227 to 231 °C
c1ccc(-c2cnc3c(c2)ncn3-c2cccc(-c3cccnc3)c2)cc1	179 to 180 °C
COC(=O)c1cc(CCl)ccc1OCc1nc(-c2ccco2)oc1C	107 to 108 °C
CC12CCC(C(=O)O)=CC1=CCC1C2CCC2(C)C(C(=O)CCC3CCCCC3)CCC12 (stereo not drawn)	247 °C
CCCc1c2[nH]c(C(=O)OCC)cc(=O)c2cc2c(=O)cc(C(=O)OCC)oc12	211 to 212 °C
COP(=O)(OC)c1cc(Oc2ccc(C(F)(F)F)cc2Cl)ccc1[N+](=O)[O-]	83 °C
Cc1cc(NC(=O)c2c(C(F)(F)F)nc3c(C(F)(F)F)cccc3c2O)no1	216 °C
CN(C)C(=O)CN1CCC(c2ccc(Nc3nc4c(-c5cnn(-c6ccc(F)cc6)c5)cccn4n3)cc2)CC1	131 to 133 °C
COc1cc(F)ccc1-c1c(/C=C/C(O)CC(=O)O)c2ccccc2c(=O)n1C(C)C (stereo not drawn)	207 to 209 °C
O=C(NCc1cccnc1)c1ccnc(N2CCN(Cc3ccc(F)cc3)C2=O)c1	153 to 155 °C
CC(=O)OCC(C)(CC(C)(C)C)C(=O)O (stereo not drawn)	89.5 to 90.5 °C
O=[N+]([O-])c1ccc2ccccc2c1NCC12CCCN1CCC2	88 to 89 °C
OC[C@H](O)CNc1ccc2cc(OCC3CC3)ccc2c1	138 °C
CSc1ccc(-c2nc(SC)c(C#N)c(=O)n2-c2ccc(C)cc2)cc1	196 to 198 °C
C#CCC(CC#C)(C(=O)O)S(=O)(=O)c1ccc(OC)cc1	156 °C
CC(=O)NC[C@H]1CN(c2ccc(N3CCC(=CC#N)CC3)c(F)c2)C(=O)O1	159 to 160 °C

SMILES	melting point
CCOC(=O)CSc1nc(Cl)cc(NN=Cc2ccc(F)cc2)n1	146 to 149 °C
CN(C)C1(c2ccccc2)CCC(CNC(=O)N2CCCC(c3c[nH]c4ccccc34)C2)CC1 (stereo not drawn)	95 to 99 °C
CCCNC(=O)N(CC(=O)OCC)CC1CC2c3cccc4[nH]cc(c34)CC2N(C)C1 (stereo not drawn)	109 to 110 °C
COc1ccc(Cl)cc1C(=O)CCCCCl	52 to 54 °C
CCOC1Cc2cc3ccc(=O)oc3c(OC)c2O1 (stereo not drawn)	119 to 120 °C
C/C(=C\c1ccc(C(=O)O)cc1)c1ccc(O)c(C(C)(C)C)c1	209 °C
Nc1nc(S(N)(=O)=O)c2[nH]cnc2n1	> 250 °C
CC(C)c1nc(C(C)C)c(CCCC(=O)O)c(-c2ccc(F)cc2)c1CO	160 °C
CN1C2C=C(c3c[nH]c4ccc(NC(=N)c5cccs5)cc34)CC1CC2 (stereo not drawn)	93 to 95 °C
CC(C)c1nc(COCc2ccccc2)n(CF)c1Sc1cc(Cl)cc(Cl)c1	115 to 117 °C
O=C(O)c1cc(F)c(N(CCO)CCO)c(F)c1	146 to 150 °C
CCOc1ccc2c(c1)C(c1ccccc1Cl)C(=O)N2 (stereo not drawn)	176 to 180 °C
Cc1c(NC(=O)c2cccc(OCc3ccccc3)c2)ccc2cc(CN3CCCC3)cnc12	148 to 149 °C
Nc1nc(NC2Cc3ccccc3N(S(=O)(=O)c3ccc(Cl)cc3Cl)C2)c2cn[nH]c2n1 (stereo not drawn)	153 to 163 °C
Cc1nc(N2CCN(Cc3ccccc3C(=O)O)C2=O)sc1C(=O)NCc1ccccc1	153 to 156 °C
O=C(O)C1NCCc2c1[nH]c1ccc(F)cc21 (stereo not drawn)	237 to 238 °C
COC(=O)c1c(OC)cccc1C(=O)O	140 to 141 °C
O=C(NNc1ccccc1)C1CSC(c2cccnc2)N1 (stereo not drawn)	155 °C
COc1ccc(-c2cc(=O)c3c(O)c(I)c(OC)cc3o2)cc1	205 to 207 °C
c1ccc(CCc2cc3cccnc3[nH]2)cc1	157 to 158 °C
CCOC(=O)C(CC)CCc1cc(-c2ccccc2)nc2ccccc12 (stereo not drawn)	76 °C
CC1(C)NC(SCc2ccccc2)=NC1=S	133 to 134 °C
CCOC(=O)C(=O)Nc1cc(C#N)c(Cl)cc1[N+](=O)[O-]	80 to 82 °C
Cn1c(=NN)sc2ccccc21	134 °C
CCCCCCCCCCCC(CC(=O)C(CCCCCC)C(=O)OC)OC1CCCCO1 (stereo not drawn)	37 to 38 °C
CCS(=O)c1c(C#N)nn(-c2c(Cl)cc(C(F)(F)F)cc2Cl)c1NCCSC (stereo not drawn)	111 to 113 °C

SMILES	melting point
CC(C)c1nc(C(O)(C(F)(F)F)C(F)(F)F)[nH]c1-c1ccc([N+](=O)[O-])cc1	157 to 160 °C
c1ccc(CSc2nc3cnccc3[nH]2)cc1	175 to 177 °C
Cc1ccccc1C=C1CCc2c1nc1ccc(C(=O)O)cn1c2=O	300 to 302 °C
CC(C)(C)C(=O)NCCCN(CCCNC(=O)C(C)(C)C)c1ccccc1	72 °C
Cc1c(N)noc1C(F)(F)F	34.5 to 36 °C
COC(=O)c1c[nH]c(C=Cc2cnc3nc(NC(=O)C(C)(C)C)nc(O)c3c2)c1	> 260 °C
C=CCc1c(O)cccc1C1=NNC(=O)CC1	197 to 200 °C
COC(=O)c1ccccc1CS(=O)(=O)NC(=S)Nc1nc(OC)cc(OC)n1	167 to 168 °C
CCOC(=O)Cc1ccc2c(c1)sc1ccc(Cl)cc12	88 to 90 °C
O=C(Cc1ccccc1Nc1c(Cl)cccc1Cl)OCCOCCOCCO[N+](=O)[O-]	68 °C
Cc1cnc(NCCc2ccccn2)c(=O)n1NC(=O)CCc1cc(Cl)ccc1Cl	188 to 191 °C
CC(C)n1nc(-c2nc(O)cnc2-c2ccccc2)ccc1=O	198 to 200 °C
COC(=O)ON=C(N)c1ccc(C(=O)OC(C)(C)C)cc1	157 to 159 °C
COc1ccc2oc(C(O)Cc3ccccc3)cc2c1 (stereo not drawn)	69 to 70 °C
COc1ccc(C2CCc3ccccc3O2)cc1 (stereo not drawn)	82 to 83 °C
COC(=O)c1cnnc2c(C)cccc12	90 to 91 °C
COc1cc(-c2ccc(=O)[nH]n2)ccc1OC(F)F	170 °C
Cc1cccc(C(=O)NO)c1N(C)S(=O)(=O)c1ccc(OCCCNC(=O)c2cc3ccccc3o2)cc1	148 to 150 °C
OCc1cc2cccc(Br)c2s1	82 to 83 °C
COC1CC2(C)C(CCC3C4CCC(C(C)=O)C4(C)CC(=O)C32)CC1O (stereo not drawn)	163 to 164 °C
Cn1cc(C(N)=O)c(Nc2ccc(Cl)c(Cl)c2)cc1=O	> 250 °C
CCCCCOc1ccc(-c2ccc(CC(=O)c3ccccc3)cc2)cc1	86 °C
COc1cc(C)nc(NC(N)=S)n1	220 °C
CCOC(=O)C(=O)NNc1ccc([N+](=O)[O-])cc1	187 to 188 °C
CC(C)(C)c1ccc(CCC(O)CCC2CCCCC2)cc1NC(=O)CC1c2ccccc2Oc2ccccc21 (stereo not drawn)	136 to 137 °C
